According to patent US20100267561A1, “HERBICIDAL PYRIDAZINONE DERIVATIVES” (priority 2007, published 2010):
Read-outs that look alike come from different tables or passages of the source.

Legend:
Assay type in all cases: in vivo
[1] = tested on: Italian ryegrass (Lolium multiflorum); assay: Test B pre-/postemergence plant response; conditions: Lolium multiflorum, read-out: Plant response rating, Ryegrass, Italian; for pest or weed control at 16 g/ha: 16 g ai/ha; for pest or weed control at 31 g/ha: 31 g ai/ha, 100 complete control; for pest or weed control at 62 g/ha: 62 g ai/ha; for pest or weed control at 125 g/ha: 125 g ai/ha
In short: (§1)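 Visual scoring from 0 (no effect) to 100 (complete control) against untreated controls was done 13 to 15 days after greenhouse treatment. Chemicals were formulated in a surfactant-containing non-phytotoxic solvent and applied to soil preemergence or to 1- to 4-leaf (2-18 cm) plants postemergence.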

[2] = tested on: blackgrass (Alopecurus myosuroides); assay: Test B pre-/postemergence plant response; conditions: Alopecurus myosuroides, read-out: Plant response rating, Blackgrass; for pest or weed control at 16 g/ha: 16 g ai/ha; for pest or weed control at 31 g/ha: 31 g ai/ha, 100 complete control; for pest or weed control at 62 g/ha: 62 g ai/ha; for pest or weed control at 125 g/ha: 125 g ai/ha
In short: as §1

[3] = tested on: catchweed bedstraw (Galium aparine); assay: Test B pre-/postemergence plant response; conditions: Galium aparine, pre-emergence, Preemergence, read-out: Plant response rating, Galium
In short: as §1

[4] = tested on: common (oilseed) sunflower (Helianthus annuus); assay: Test B pre-/postemergence plant response; conditions: Helianthus annuus, pre-emergence, Preemergence, read-out: Plant response rating, Sunflower
In short: as §1

[5] = tested on: common ragweed (Ambrosia elation); assay: Test B pre-/postemergence plant response; conditions: Ambrosia, read-out: Plant response rating, Ragweed; for pest or weed control at 16 g/ha: 16 g ai/ha; for pest or weed control at 31 g/ha: 31 g ai/ha, 100 complete control; for pest or weed control at 62 g/ha: 62 g ai/ha; for pest or weed control at 125 g/ha: 125 g ai/ha
In short: as §1

[6] = tested on: downy bromegrass (Bromus tectorum); assay: Test B pre-/postemergence plant response; conditions: Bromus tectorum, read-out: Plant response rating, Bromegrass, Downy; for pest or weed control at 16 g/ha: 16 g ai/ha; for pest or weed control at 31 g/ha: 31 g ai/ha, 100 complete control; for pest or weed control at 62 g/ha: 62 g ai/ha; for pest or weed control at 125 g/ha: 125 g ai/ha
In short: as §1

[7] = tested on: eastern black (E.B.) nightshade (Solanum ptycanthum); assay: Test B pre-/postemergence plant response; conditions: Solanum, pre-emergence, Preemergence, read-out: Plant response rating, Nightshade, E. B.
In short: as §1

[8] = tested on: johnsongrass (Sorghum halepense); assay: Test B pre-/postemergence plant response; conditions: Sorghum halepense, read-out: Plant response rating, Johnsongrass; for pest or weed control at 16 g/ha: 16 g ai/ha; for pest or weed control at 31 g/ha: 31 g ai/ha, 100 complete control; for pest or weed control at 62 g/ha: 62 g ai/ha; for pest or weed control at 125 g/ha: 125 g ai/ha
In short: as §1

[9] = tested on: large crabgrass (Digitaria sanguinalis); assay: Test B pre-/postemergence plant response; conditions: Digitaria sanguinalis, read-out: Plant response rating, Crabgrass, Large; for pest or weed control at 16 g/ha: 16 g ai/ha; for pest or weed control at 31 g/ha: 31 g ai/ha, 100 complete control; for pest or weed control at 62 g/ha: 62 g ai/ha; for pest or weed control at 125 g/ha: 125 g ai/ha
In short: as §1

[10] = tested on: morningglory (Ipomoea coccinea); assay: Test B pre-/postemergence plant response; conditions: Ipomoea, read-out: Plant response rating, Morningglory; for pest or weed control at 16 g/ha: 16 g ai/ha; for pest or weed control at 31 g/ha: 31 g ai/ha, 100 complete control; for pest or weed control at 62 g/ha: 62 g ai/ha; for pest or weed control at 125 g/ha: 125 g ai/ha
In short: as §1

[11] = tested on: pigweed (Amaranthus retroflexus); assay: Test B pre-/postemergence plant response; conditions: Amaranthus retroflexus, post-emergence, Postemergence, read-out: Plant response rating, Pigweed
In short: as §1

[12] = tested on: wild oat (Avena fatua); assay: Test B pre-/postemergence plant response; conditions: Avena fatua, read-out: Plant response rating, Oat, Wild; for pest or weed control at 16 g/ha: 16 g ai/ha; for pest or weed control at 31 g/ha: 31 g ai/ha, 100 complete control; for pest or weed control at 62 g/ha: 62 g ai/ha; for pest or weed control at 125 g/ha: 125 g ai/ha
In short: as §1

[13] = tested on: barnyardgrass (Echinochloa crus-galli); assay: Test B flooded paddy test plant response; conditions: Echinochloa crus-galli, read-out: Plant response rating, Barnyardgrass
In short: (§2)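 Step one: raise plants to 2 leaves. Step two: flood pots 3 cm over the soil and apply compound into the water, keeping this depth. Step three: after 13–15 greenhouse days, score visually versus controls, 0–100, where 100 means complete control.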

[14] = tested on: rice (Oryza sativa); assay: Test B flooded paddy test plant response; conditions: Oryza sativa, read-out: Plant response rating, Rice
In short: as §2

[15] = post-emergence, Postemergence, scale 0 to 100
[16] = post-emergence, Postemergence, scale 0 to 100, 0 no effect
[17] = pre-emergence, Preemergence, scale 0 to 100 (0 no effect, 100 complete control)
[18] = pre-emergence, Preemergence, 0 to 100 scale, 0 no effect
[19] = pre-emergence, Preemergence, scale 0 to 100
[20] = 16 g ai/ha, scale 0 to 100 (0 no effect, 100 complete control)
[21] = 31 g ai/ha, 0 to 100 scale, 0 no effect, 100 complete control
[22] = Flood (flooded paddy test), 62 g ai/ha, scale 0 to 100, 0 no effect, 100 complete control
[23] = Flood (flooded paddy test), 125 g ai/ha, scale 0 to 100, 0 no effect, 100 complete control
[24] = Flood (flooded paddy test), 250 g ai/ha, scale 0 to 100, 0 no effect, 100 complete control
[25] = Flood, 31 g ai/ha, scale 0 to 100

With `CCc1cc(-c2ccc(C(F)(F)F)cc2)nn1-c1c(O)cnn(C)c1=O` [Compound 11, 4-[5-ethyl-3-[4-(trifluoromethyl)phenyl]-1H-pyrazol-1-yl]-5-hydroxy-2-methyl-3(2H)-pyridazinone] the pest or weed control at 16 g/ha [1, 15] was 100%, the pest or weed control at 31 g/ha [1, 16] was 100% and the pest or weed control at 62 g/ha [1, 15] was 100%. For the same compound, the pest or weed control at 125 g/ha [1, 15] was 100%, the pest or weed control at 16 g/ha [1, 17] was 90% and the pest or weed control at 31 g/ha [1, 18] was 100%. For the same compound, the pest or weed control at 62 g/ha [1, 19] was 100%, the pest or weed control at 125 g/ha [1, 19] was 100% and the pest or weed control at 16 g/ha [2, 15] was 100%. It also gave a pest or weed control at 31 g/ha [2, 16] of 100%, a pest or weed control at 62 g/ha [2, 15] of 100% and a pest or weed control at 125 g/ha [2, 15] of 100%. It also gave a pest or weed control at 16 g/ha [2, 17] of 100%, a pest or weed control at 31 g/ha [2, 18] of 100% and a pest or weed control at 62 g/ha [2, 19] of 100%. The pest or weed control at 125 g/ha [2, 19] was 100%, the pest or weed control at 16 g/ha [3, 20] was 0% and the pest or weed control at 31 g/ha [3, 21] was 0%. For the same compound, the pest or weed control at 62 g/ha ([3]; 62 g ai/ha, scale 0 to 100) was 0%, the pest or weed control at 125 g/ha ([3]; 125 g ai/ha, scale 0 to 100) was 0% and the pest or weed control at 16 g/ha [4, 20] was 0%. For the same compound, the pest or weed control at 31 g/ha [4, 21] was 0%, the pest or weed control at 62 g/ha ([4]; 62 g ai/ha, scale 0 to 100) was 0% and the pest or weed control at 125 g/ha ([4]; 125 g ai/ha, scale 0 to 100) was 0%. It also gave a pest or weed control at 16 g/ha [5, 15] of 0%, a pest or weed control at 31 g/ha [5, 16] of 0% and a pest or weed control at 62 g/ha [5, 15] of 0%. It also gave a pest or weed control at 125 g/ha [5, 15] of 0%, a pest or weed control at 16 g/ha [5, 17] of 0% and a pest or weed control at 31 g/ha [5, 18] of 0%. For the same compound, the pest or weed control at 62 g/ha [5, 19] was 0%, the pest or weed control at 125 g/ha [5, 19] was 0% and the pest or weed control at 16 g/ha [6, 15] was 85%. The pest or weed control at 31 g/ha [6, 16] was 90%, the pest or weed control at 62 g/ha [6, 15] was 98% and the pest or weed control at 125 g/ha [6, 15] was 100%. For the same compound, the pest or weed control at 16 g/ha [6, 17] was 50%, the pest or weed control at 31 g/ha [6, 18] was 95% and the pest or weed control at 62 g/ha [6, 19] was 98%. The pest or weed control at 125 g/ha [6, 19] was 100%, the pest or weed control at 31 g/ha [7, 21] was 0% and the pest or weed control at 62 g/ha ([7]; 62 g ai/ha, scale 0 to 100) was 0%. For the same compound, the pest or weed control at 125 g/ha ([7]; 125 g ai/ha, scale 0 to 100) was 0%, the pest or weed control at 16 g/ha [8, 15] was 100% and the pest or weed control at 31 g/ha [8, 16] was 100%. It also gave a pest or weed control at 62 g/ha [8, 15] of 100%, a pest or weed control at 125 g/ha [8, 15] of 100% and a pest or weed control at 16 g/ha [8, 17] of 90%. For the same compound, the pest or weed control at 31 g/ha [8, 18] was 98%, the pest or weed control at 62 g/ha [8, 19] was 100% and the pest or weed control at 125 g/ha [8, 19] was 100%. For the same compound, the pest or weed control at 16 g/ha [9, 15] was 98%, the pest or weed control at 31 g/ha [9, 16] was 100% and the pest or weed control at 62 g/ha [9, 15] was 100%. The pest or weed control at 125 g/ha [9, 15] was 100%, the pest or weed control at 16 g/ha [9, 17] was 90% and the pest or weed control at 31 g/ha [9, 18] was 90%. It also gave a pest or weed control at 62 g/ha [9, 19] of 100%, a pest or weed control at 125 g/ha [9, 19] of 100% and a pest or weed control at 16 g/ha [10, 15] of 0%. For the same compound, the pest or weed control at 31 g/ha [10, 16] was 0%, the pest or weed control at 62 g/ha [10, 15] was 0% and the pest or weed control at 125 g/ha [10, 15] was 0%. The pest or weed control at 16 g/ha [10, 17] was 0%, the pest or weed control at 31 g/ha [10, 18] was 0% and the pest or weed control at 62 g/ha [10, 19] was 0%. It also gave a pest or weed control at 125 g/ha [10, 19] of 0%, a pest or weed control at 16 g/ha ([11]; 16 g ai/ha, scale 0 to 100) of 0% and a pest or weed control at 31 g/ha ([11]; 31 g ai/ha, scale 0 to 100, 0 no effect, 100 complete control) of 0%. The pest or weed control at 62 g/ha ([11]; 62 g ai/ha, scale 0 to 100) was 0%, the pest or weed control at 125 g/ha ([11]; 125 g ai/ha, scale 0 to 100) was 5% and the pest or weed control at 16 g/ha [12, 15] was 100%. It also gave a pest or weed control at 31 g/ha [12, 16] of 100%, a pest or weed control at 62 g/ha [12, 15] of 100% and a pest or weed control at 125 g/ha [12, 15] of 100%. It also gave a pest or weed control at 16 g/ha [12, 17] of 80%, a pest or weed control at 31 g/ha [12, 18] of 98% and a pest or weed control at 62 g/ha [12, 19] of 98%. It also gave a pest or weed control at 125 g/ha [12, 19] of 100%, a pest or weed control at 62 g/ha [13, 22] of 50% and a pest or weed control at 125 g/ha [13, 23] of 65%. The pest or weed control at 250 g/ha [13, 24] was 75%, the pest or weed control at 31 g/ha [13, 25] was 40% and the plant injury at 62 g/ha [14, 22] was 30%. It also gave a plant injury at 125 g/ha [14, 23] of 60%, a plant injury at 250 g/ha [14, 24] of 70% and a plant injury at 31 g/ha [14, 25] of 0%.
